Experimental data: patent publication US8304410B2, “Pyrrole compounds as inhibitors of mycobacteria, synthesis thereof and intermediates thereto” (priority 2007, dated 2012)
In brackets after ≈: the same amount, converted by molar mass.

How the values were obtained:
Type in all cases: cell-based
[1] = test system: M. tuberculosis RMP-R; assay: microbe, parasite or virus in culture; conditions: for MIC: Mycobacterium tuberculosis, read-out: M. tuberculosis RMP-R (Rif-R) MIC; for M. tuberculosis RMP-R (Rif-R) MIC: rifampicin-resistant mycobacteria
[2] = test system: M. tuberculosis INH-R; assay: microbe, parasite or virus in culture; conditions: for MIC: Mycobacterium tuberculosis, read-out: M. tuberculosis INH-R MIC; for M. tuberculosis INH-R MIC: isoniazid-resistant mycobacteria
[3] = test system: M. tuberculosis SM-R; conditions: streptomycin-resistant mycobacteria
[4] = test system: M. tuberculosis PZA-R; conditions: pirazinamide-resistant mycobacteria

SMILES	MIC [1]	MIC [2]	M. tuberculosis RMP-R (Rif-R) MIC [1]	SM-R MIC [3]	M. tuberculosis INH-R MIC [2]	PZA-R MIC [4]
[H]/N=C(/N)N[C@H]1[C@H](O)[C@@H](O)[C@H](O[C@@H]2O[C@@H](C)[C@](O)(C=O)[C@H]2O[C@@H]2O[C@@H](CO)[C@H](O)[C@@H](O)[C@@H]2NC)[C@@H](N/C(N)=N\[H])[C@@H]1O [Streptomycin, SM, Streptomycin, reference compound]	0.5 µg/mL (≈ 0.86 µM)	0.5 µg/mL (≈ 0.86 µM)	–	–	–	–
NNC(=O)c1ccncc1 [Isoniazid, INH, Isoniazid, reference compound]	0.25 µg/mL (≈ 1.82 µM)	> 64 µg/mL	–	–	–	–
CSc1ccc(-c2cc(CN3CCOCC3)c(C)n2-c2ccc(F)cc2)cc1 [Compound 3h]	–	–	2 µg/mL	0.25 µg/mL	>16 µg/mL	0.5 µg/mL
CSc1ccc(-c2cc(CN3CCSCC3)c(C)n2-c2ccc(C(C)C)cc2)cc1 [Compound 3e]	–	–	1 µg/mL	0.125 µg/mL	16 µg/mL	1 µg/mL
CSc1ccc(-c2cc(CN3CCSCC3)c(C)n2-c2ccc(C)cc2)cc1 [Compound 3b]	–	–	0.25 µg/mL	0.25 µg/mL	16 µg/mL	0.5 µg/mL
CCc1ccc(-n2c(-c3ccc(SC)cc3)cc(CN3CCSCC3)c2C)cc1 [Compound 3c]	–	–	0.25 µg/mL	0.25 µg/mL	16 µg/mL	0.25 µg/mL
CSc1ccc(-c2cc(CN3CCSCC3)c(C)n2-c2ccc(F)cc2)cc1 [Compound 3a, N-(4-fluorophenyl)-2-methyl-3-thiomorpholinomethyl-5-(4-methylsulfanylphenyl)pyrrole]	0.25 µg/mL (≈ 0.606 µM)	> 16 µg/mL	–	–	>16 µg/mL	–
CO[C@H]1/C=C/O[C@@]2(C)Oc3c(C)c(O)c4c(O)c(c(/C=N/N5CCN(C)CC5)c(O)c4c3C2=O)NC(=O)/C(C)=C\C=C\[C@H](C)[C@H](O)[C@@H](C)[C@@H](O)[C@@H](C)[C@H](OC(C)=O)[C@@H]1C [Rifampicin, RIF, Rifampicin]	> 64 µg/mL	0.8 µg/mL (≈ 0.972 µM)	–	–	–	–
CSc1ccc(-c2cc(CN3CCN(C)CC3)c(C)n2-c2ccc(F)cc2)cc1 [Compound 3f]	–	–	2 µg/mL	1 µg/mL	8 µg/mL	2 µg/mL
CCCc1ccc(-n2c(-c3ccc(SC)cc3)cc(CN3CCSCC3)c2C)cc1 [Compound 3d]	–	–	0.5 µg/mL	0.25 µg/mL	8 µg/mL	0.5 µg/mL
